One assay has as its target Histamine H1 receptor (Homo sapiens, UniProt P35367). The format is functional, cell-based.
The next assay addresses T1, Androgen receptor (Rattus norvegicus, UniProt P15207).
T1 sequence (P15207 whole entry): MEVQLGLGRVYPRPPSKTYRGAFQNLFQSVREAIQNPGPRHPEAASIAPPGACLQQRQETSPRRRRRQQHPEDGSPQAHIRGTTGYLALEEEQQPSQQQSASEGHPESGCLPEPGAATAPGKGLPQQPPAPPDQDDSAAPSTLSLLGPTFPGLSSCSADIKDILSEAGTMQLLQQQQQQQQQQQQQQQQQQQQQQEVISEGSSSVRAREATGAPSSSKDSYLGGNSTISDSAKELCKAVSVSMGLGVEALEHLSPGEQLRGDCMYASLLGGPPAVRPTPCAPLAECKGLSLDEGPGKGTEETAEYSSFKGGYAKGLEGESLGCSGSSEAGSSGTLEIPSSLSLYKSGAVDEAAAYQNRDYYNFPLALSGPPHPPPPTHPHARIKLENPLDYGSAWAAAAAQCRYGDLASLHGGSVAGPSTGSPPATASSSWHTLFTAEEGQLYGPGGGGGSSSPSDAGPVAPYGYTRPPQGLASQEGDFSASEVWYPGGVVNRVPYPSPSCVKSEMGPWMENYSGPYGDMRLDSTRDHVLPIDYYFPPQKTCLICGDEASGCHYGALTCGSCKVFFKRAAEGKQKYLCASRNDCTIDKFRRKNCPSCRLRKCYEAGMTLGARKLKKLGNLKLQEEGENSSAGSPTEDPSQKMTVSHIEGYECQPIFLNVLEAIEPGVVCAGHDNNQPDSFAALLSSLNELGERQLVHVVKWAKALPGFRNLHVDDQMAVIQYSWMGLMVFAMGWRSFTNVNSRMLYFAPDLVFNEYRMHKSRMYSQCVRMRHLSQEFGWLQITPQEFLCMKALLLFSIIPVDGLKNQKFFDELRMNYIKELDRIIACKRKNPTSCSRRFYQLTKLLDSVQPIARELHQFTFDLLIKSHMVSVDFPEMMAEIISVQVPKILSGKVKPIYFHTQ
The class given is functional.

Assay [1] has as its target T2, Glucocorticoid receptor (Homo sapiens, UniProt P04150).
T2 sequence (P04150 whole entry): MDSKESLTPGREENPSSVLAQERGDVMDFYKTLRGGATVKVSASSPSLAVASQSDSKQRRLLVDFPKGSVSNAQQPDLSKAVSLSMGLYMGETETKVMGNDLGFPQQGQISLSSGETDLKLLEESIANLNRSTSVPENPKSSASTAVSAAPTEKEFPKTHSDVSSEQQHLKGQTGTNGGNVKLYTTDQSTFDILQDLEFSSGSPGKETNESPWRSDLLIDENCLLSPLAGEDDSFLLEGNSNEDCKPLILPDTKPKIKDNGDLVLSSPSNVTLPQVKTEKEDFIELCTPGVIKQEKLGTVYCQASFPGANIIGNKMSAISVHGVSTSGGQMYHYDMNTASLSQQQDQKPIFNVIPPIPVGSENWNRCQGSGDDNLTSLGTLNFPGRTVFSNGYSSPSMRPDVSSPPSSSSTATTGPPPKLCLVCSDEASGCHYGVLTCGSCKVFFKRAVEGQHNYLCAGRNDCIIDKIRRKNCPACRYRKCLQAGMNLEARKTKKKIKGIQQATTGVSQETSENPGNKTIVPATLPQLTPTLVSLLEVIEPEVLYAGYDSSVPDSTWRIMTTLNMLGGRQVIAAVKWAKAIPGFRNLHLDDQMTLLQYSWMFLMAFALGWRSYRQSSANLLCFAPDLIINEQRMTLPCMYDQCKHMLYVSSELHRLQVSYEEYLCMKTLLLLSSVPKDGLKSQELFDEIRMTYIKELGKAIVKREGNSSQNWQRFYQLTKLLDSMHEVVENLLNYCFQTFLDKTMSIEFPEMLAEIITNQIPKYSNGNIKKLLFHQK
The format is functional.

Assay [2] addresses Sodium channel protein type 5 subunit alpha (Homo sapiens, UniProt Q14524). The class given is functional, cell-based.
Assay [3] has as its target T2, Glucocorticoid receptor. The class given is functional. This is another data set of the same source.
Assay [4] concerns the target 5-hydroxytryptamine receptor 6 (Homo sapiens, UniProt P50406).
In assay [5] the target is T3, Alpha-1A adrenergic receptor (Homo sapiens, UniProt P35348).
T3 sequence (P35348 whole entry): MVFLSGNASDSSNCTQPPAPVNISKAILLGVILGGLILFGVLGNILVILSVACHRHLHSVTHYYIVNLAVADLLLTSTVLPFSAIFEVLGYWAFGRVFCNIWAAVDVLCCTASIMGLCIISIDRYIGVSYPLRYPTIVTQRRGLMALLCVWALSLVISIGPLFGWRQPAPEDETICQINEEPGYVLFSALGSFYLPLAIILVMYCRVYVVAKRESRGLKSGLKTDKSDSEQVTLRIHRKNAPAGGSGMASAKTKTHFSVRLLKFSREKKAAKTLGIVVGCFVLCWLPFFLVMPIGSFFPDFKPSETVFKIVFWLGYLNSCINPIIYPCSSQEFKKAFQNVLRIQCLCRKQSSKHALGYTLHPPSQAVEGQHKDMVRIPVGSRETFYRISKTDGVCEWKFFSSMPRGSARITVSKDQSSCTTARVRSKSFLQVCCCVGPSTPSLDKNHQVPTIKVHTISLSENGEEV

A further assay concerns the target Cannabinoid receptor 1 (Homo sapiens, UniProt P21554). The class given is functional.
Assay [6] deals with Gamma-aminobutyric acid type B receptor subunit 1 (Homo sapiens, UniProt Q9UBS5).
Sequence of Gamma-aminobutyric acid type B receptor subunit 1 (Q9UBS5 whole entry): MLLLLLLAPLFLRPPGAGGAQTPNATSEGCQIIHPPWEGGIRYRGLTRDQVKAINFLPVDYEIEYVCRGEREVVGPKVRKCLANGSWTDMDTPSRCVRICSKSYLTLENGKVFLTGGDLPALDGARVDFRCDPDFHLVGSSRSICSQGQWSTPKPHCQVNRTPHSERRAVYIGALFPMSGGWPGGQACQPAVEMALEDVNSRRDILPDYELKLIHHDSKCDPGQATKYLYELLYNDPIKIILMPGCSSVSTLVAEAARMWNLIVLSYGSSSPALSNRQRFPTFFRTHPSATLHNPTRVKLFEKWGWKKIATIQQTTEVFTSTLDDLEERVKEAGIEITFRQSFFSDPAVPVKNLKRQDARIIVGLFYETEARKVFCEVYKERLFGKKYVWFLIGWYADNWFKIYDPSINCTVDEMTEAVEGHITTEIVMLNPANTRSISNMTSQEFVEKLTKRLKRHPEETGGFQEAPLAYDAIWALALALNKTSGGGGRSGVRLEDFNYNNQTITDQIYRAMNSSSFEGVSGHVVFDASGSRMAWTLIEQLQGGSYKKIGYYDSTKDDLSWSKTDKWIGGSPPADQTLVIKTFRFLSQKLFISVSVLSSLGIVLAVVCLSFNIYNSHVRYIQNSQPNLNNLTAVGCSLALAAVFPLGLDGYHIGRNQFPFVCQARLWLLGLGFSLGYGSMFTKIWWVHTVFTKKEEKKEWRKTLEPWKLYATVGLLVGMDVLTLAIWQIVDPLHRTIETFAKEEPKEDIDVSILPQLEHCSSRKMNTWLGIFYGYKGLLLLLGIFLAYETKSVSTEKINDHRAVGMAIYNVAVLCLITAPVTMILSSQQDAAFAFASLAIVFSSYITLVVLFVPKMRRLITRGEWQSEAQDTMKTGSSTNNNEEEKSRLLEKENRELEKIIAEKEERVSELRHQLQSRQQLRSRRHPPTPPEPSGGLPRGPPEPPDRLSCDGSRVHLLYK
The target in the next assay is Estrogen receptor beta (Homo sapiens, UniProt Q92731).
Sequence of Estrogen receptor beta (Q92731 whole entry): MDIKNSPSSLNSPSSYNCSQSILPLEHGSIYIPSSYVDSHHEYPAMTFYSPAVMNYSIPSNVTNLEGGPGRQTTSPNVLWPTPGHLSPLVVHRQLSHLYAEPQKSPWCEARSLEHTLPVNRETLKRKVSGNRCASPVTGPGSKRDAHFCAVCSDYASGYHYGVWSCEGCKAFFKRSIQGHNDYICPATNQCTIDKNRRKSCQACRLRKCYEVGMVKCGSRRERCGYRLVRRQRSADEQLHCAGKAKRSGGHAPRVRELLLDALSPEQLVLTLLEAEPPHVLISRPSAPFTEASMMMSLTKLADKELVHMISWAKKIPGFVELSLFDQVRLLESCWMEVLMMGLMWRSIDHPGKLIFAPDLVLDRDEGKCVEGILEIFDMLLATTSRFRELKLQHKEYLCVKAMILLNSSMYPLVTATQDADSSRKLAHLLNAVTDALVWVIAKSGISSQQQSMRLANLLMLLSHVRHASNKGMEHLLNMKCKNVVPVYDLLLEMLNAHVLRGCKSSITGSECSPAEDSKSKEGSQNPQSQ
A further assay deals with D(1A) dopamine receptor (Homo sapiens, UniProt P21728).
Note: assay procedure not described here.

Sequence of 5-hydroxytryptamine receptor 6 (P50406 whole entry): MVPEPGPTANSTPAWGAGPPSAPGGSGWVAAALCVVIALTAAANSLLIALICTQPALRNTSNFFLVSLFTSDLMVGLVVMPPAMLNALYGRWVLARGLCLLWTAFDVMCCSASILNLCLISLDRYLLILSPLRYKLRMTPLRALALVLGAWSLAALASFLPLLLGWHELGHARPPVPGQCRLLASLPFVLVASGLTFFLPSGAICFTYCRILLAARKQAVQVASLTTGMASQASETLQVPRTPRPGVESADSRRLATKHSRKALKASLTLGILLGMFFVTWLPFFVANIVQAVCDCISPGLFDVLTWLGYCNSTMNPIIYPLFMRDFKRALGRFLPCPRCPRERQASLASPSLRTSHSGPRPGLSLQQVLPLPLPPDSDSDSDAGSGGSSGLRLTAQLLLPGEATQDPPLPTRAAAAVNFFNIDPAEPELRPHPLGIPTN
Sequence of Cannabinoid receptor 1 (P21554 whole entry): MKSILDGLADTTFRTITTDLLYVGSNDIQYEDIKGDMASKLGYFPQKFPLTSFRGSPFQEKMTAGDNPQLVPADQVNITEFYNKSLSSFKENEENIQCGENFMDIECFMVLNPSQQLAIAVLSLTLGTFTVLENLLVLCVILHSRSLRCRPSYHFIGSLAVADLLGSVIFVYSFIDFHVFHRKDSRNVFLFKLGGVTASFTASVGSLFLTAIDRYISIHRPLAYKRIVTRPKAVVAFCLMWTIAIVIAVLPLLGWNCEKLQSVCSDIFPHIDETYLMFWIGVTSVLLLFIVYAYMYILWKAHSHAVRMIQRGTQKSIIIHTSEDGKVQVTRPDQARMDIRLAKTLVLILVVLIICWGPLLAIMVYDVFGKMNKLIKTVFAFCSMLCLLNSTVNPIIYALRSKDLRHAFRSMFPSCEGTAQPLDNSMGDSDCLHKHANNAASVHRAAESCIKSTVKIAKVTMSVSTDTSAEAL
Sequence of Histamine H1 receptor (P35367 whole entry): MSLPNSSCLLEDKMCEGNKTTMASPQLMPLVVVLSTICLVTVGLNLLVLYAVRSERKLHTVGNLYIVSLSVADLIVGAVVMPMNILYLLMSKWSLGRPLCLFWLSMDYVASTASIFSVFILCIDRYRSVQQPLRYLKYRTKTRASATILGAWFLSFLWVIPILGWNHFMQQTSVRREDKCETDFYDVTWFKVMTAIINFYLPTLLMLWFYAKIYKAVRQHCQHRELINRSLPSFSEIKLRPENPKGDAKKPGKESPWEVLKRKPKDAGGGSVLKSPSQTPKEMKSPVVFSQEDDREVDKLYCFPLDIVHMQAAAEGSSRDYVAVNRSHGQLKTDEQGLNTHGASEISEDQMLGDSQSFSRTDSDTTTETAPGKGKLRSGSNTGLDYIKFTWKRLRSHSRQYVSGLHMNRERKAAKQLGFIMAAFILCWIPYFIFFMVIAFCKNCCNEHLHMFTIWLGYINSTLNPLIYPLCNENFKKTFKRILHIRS
Sequence of Sodium channel protein type 5 subunit alpha (Q14524 whole entry): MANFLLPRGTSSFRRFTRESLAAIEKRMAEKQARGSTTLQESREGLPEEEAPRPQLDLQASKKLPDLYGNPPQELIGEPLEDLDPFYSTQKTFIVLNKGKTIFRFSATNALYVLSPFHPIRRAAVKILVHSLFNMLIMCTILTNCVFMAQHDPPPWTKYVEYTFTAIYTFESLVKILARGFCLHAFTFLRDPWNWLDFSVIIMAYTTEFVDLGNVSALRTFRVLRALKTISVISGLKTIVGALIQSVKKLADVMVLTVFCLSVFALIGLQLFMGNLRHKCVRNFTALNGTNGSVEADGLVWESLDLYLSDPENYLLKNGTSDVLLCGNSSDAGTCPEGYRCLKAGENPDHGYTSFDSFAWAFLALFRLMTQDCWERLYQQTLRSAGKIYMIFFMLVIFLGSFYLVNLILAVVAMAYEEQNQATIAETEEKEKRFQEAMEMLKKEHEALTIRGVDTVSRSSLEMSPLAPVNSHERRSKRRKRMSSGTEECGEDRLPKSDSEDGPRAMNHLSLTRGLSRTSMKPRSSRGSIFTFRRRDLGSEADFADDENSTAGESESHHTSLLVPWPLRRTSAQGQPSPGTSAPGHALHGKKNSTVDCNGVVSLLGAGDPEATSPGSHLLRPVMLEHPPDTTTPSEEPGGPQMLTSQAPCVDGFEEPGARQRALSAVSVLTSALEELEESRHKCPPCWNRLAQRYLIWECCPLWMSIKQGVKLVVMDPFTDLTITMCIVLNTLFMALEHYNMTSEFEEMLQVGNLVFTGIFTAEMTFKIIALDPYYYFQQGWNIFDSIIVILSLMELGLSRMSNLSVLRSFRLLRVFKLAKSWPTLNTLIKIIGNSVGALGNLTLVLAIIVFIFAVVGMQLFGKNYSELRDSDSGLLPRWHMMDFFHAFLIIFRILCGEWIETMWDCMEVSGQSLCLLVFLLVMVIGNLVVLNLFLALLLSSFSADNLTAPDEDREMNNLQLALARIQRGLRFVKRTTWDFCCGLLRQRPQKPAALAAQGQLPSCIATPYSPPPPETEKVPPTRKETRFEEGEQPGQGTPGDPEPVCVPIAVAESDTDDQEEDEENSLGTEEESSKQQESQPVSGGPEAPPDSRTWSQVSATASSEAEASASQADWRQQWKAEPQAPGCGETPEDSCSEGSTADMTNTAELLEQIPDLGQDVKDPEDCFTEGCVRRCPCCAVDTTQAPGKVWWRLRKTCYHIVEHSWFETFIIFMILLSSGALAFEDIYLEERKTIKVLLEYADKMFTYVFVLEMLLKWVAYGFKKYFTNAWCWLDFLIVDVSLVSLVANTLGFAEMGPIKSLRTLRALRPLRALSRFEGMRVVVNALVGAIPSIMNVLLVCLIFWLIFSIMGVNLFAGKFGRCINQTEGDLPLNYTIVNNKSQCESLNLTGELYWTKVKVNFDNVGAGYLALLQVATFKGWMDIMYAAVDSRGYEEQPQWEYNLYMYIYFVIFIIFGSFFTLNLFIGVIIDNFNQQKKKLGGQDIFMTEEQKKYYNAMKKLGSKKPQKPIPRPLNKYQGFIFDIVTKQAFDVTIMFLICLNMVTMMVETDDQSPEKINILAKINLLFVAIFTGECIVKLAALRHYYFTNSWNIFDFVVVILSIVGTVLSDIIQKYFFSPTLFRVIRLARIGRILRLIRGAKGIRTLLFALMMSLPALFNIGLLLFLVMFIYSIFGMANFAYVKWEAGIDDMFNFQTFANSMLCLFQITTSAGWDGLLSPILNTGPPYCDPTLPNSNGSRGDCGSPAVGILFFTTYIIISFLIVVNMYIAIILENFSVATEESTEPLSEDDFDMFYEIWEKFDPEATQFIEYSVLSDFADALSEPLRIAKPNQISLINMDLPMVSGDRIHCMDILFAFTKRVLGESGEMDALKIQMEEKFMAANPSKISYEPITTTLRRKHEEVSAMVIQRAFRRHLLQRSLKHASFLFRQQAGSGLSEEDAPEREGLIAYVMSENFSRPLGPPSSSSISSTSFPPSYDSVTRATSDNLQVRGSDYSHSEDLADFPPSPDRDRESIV

In general, AC50 refers to the midpoint of the concentration-response curve, whichever way the signal moves. `C[C@@H](NCCCc1cccc(C(F)(F)F)c1)c1cccc2ccccc12`: the AC50 on Histamine H1 receptor and at Androgen receptor was above 30 µM throughout.
Regarding `COc1ccc(CC2c3cc(OC)c(OC)cc3CC[N+]2(C)CCC(=O)OCCCCCOC(=O)CC[N+]2(C)CCc3cc(OC)c(OC)cc3C2Cc2ccc(OC)c(OC)c2)cc1OC` (configuration not stated), the AC50 on Androgen receptor is above 30 µM.
As for `CCN1CCN(Cc2ccc(Nc3ncc(F)c(-c4cc(F)c5nc(C)n(C(C)C)c5c4)n3)nc2)CC1` [ABEMACICLIB], the AC50 was above 30 µM on Glucocorticoid receptor [1], above 50 µM in assay [2], above 30 µM at Glucocorticoid receptor [3] and above 30 µM on Androgen receptor.
`CCCN(CCC)C(=O)Cc1c(-c2ccc(Cl)cc2)nc2ccc(Cl)cn12` [ALPIDEM]: the concentration at half-maximal activity (AC50) (in assay [4]; in assay [5]; at Cannabinoid receptor 1; in [6]) was above 10 µM in each case.
As to `CC(C(=O)O)c1ccc2c(c1)[nH]c1ccc(Cl)cc12` (configuration not stated) [CARPROFEN], the AC50 at Glucocorticoid receptor [1] and at Glucocorticoid receptor [3] was above 30 µM in each case.
Take `COc1ccccc1OCCNCC(O)COc1cccc2[nH]c3ccccc3c12` (configuration not stated) [CARVEDILOL]: the AC50 in assay [4] was 1.25 µM; in assay [5] it was 0.0099 µM; on Cannabinoid receptor 1 it was above 10 µM; in assay [6], above 10 µM; at Estrogen receptor beta, above 30 µM; at Androgen receptor, above 30 µM.
In turn, `O=C1CCc2cc(OCCCCc3nnnn3C3CCCCC3)ccc2N1` [CILOSTAZOL] returned an AC50 in assay [2] above 50 µM.
Consider `C[C@@H](Oc1cc(-c2cnn(C3CCNCC3)c2)cnc1N)c1c(Cl)ccc(F)c1Cl` [CRIZOTINIB], for which the AC50 on Glucocorticoid receptor [1], on Glucocorticoid receptor [3] and on Androgen receptor was above 30 µM each time.
Turning to `O=C1CN(/N=C/c2ccc(-c3ccc([N+](=O)[O-])cc3)o2)C(O)=N1` [DANTROLENE], the AC50 in assay [2] is above 50 µM.
On to `CC(C)N(CCC(C(N)=O)(c1ccccc1)c1ccccn1)C(C)C` (configuration not stated) [DISOPYRAMIDE], for which the AC50 at Histamine H1 receptor was above 30 µM; in [2], above 50 µM; at Estrogen receptor beta, above 30 µM.
In [5], `C[C@H]1c2cccc(O)c2C(=O)C2=C(O)[C@]3(O)C(=O)C(C(N)=O)=C(O)[C@@H](N(C)C)[C@@H]3[C@@H](O)[C@@H]21` [DOXYCYCLINE] returned an AC50 above 10 µM.
`OC[C@H]1O[C@@H](c2ccc(Cl)c(Cc3ccc(O[C@H]4CCOC4)cc3)c2)[C@H](O)[C@@H](O)[C@@H]1O` [EMPAGLIFLOZIN] gave an AC50 in [2] above 50 µM.
On to `CC(C)(O)CNc1nc(Nc2ccnc(C(F)(F)F)c2)nc(-c2cccc(C(F)(F)F)n2)n1` [ENASIDENIB], for which the AC50 on D(1A) dopamine receptor is above 30 µM.
In the case of `CN1C[C@H](C(=O)N[C@]2(C)O[C@@]3(O)[C@@H]4CCCN4C(=O)[C@H](Cc4ccccc4)N3C2=O)C=C2c3cccc4[nH]cc(c34)C[C@H]21` [ERGOTAMINE], the AC50 at Glucocorticoid receptor [1] and at Glucocorticoid receptor [3] was above 30 µM in each case.
For `C#C[C@]1(O)CC[C@H]2[C@@H]3CCC4=CC(=O)CC[C@@H]4[C@H]3C(=C)C[C@@]21CC` [ETONOGESTREL], at D(1A) dopamine receptor, the AC50 is above 30 µM.
Turning to `O=C(O)CO` [GLYCOLIC ACID], on D(1A) dopamine receptor, the AC50 was above 30 µM.
Consider `CN(CC1(C)CCCO1)S(=O)(=O)c1ccc(Cl)c(S(N)(=O)=O)c1` (configuration not stated) [MEFRUSIDE], for which the AC50 on D(1A) dopamine receptor is above 30 µM.
At Androgen receptor, `CC(=O)O[C@]1(C(C)=O)CC[C@H]2[C@@H]3C=C(C)C4=CC(=O)CC[C@@H]4[C@H]3CC[C@@]21C` [NOMEGESTROL ACETATE] gave an AC50 above 30 µM.
For the compound `CCOC(=O)c1c(C)cc2c(CO)n[nH]c(=O)c2c1C` [OXAGRELATE], the AC50 at D(1A) dopamine receptor was above 30 µM.
The same measure, in the same setting: with `FC(F)(F)c1ccc(CNc2ccc(Cc3c[nH]c4ncc(Cl)cc34)cn2)cn1` [PEXIDARTINIB] the figure was 5.53 µM; with `CN1C(C(=O)Nc2ccccn2)=C(O)c2ccccc2S1(=O)=O` [PIROXICAM], above 30 µM.
For `C=C[C@H]1C[N@@]2CC[C@H]1C[C@@H]2[C@@H](O)c1ccnc2ccc(OC)cc12` [QUINIDINE], the AC50 on Histamine H1 receptor was above 30 µM.
For `CO[C@H]1/C=C/O[C@@]2(C)Oc3c(C)c(O)c4c(O)c(c(/C=N/N5CCN(C)CC5)c(O)c4c3C2=O)NC(=O)/C(C)=C\C=C\[C@H](C)[C@H](O)[C@@H](C)[C@@H](O)[C@@H](C)[C@H](OC(C)=O)[C@@H]1C` [RIFAMPIN], the AC50 is above 10 µM in assay [4], above 10 µM in [5], above 10 µM on Cannabinoid receptor 1 and above 30 µM on Estrogen receptor beta.
On to `CN(C)CCc1c[nH]c2ccc(Cn3cncn3)cc12` [RIZATRIPTAN], for which the AC50 was above 30 µM at Histamine H1 receptor; above 10 µM in [4]; above 10 µM in assay [5]; above 10 µM on Cannabinoid receptor 1; above 30 µM in [2]; above 10 µM in [6]. The AC50 at Estrogen receptor beta is above 30 µM.
For `CC(C)c1nc(N(C)S(C)(=O)=O)nc(-c2ccc(F)cc2)c1/C=C/[C@@H](O)C[C@@H](O)CC(=O)O` [ROSUVASTATIN], the AC50 on Histamine H1 receptor, at Glucocorticoid receptor [1] and at Glucocorticoid receptor [3] was above 30 µM throughout.
The compound `CC[C@@]1(O)C(=O)OCc2c1cc1n(c2=O)Cc2cc3c([N+](=O)[O-])cccc3nc2-1` [RUBITECAN] came in with an AC50 at D(1A) dopamine receptor above 30 µM.
Still for that read-out and setting: with `OC[C@@H](O)[C@@H](O)[C@H](O)[C@@H](O)CO` [SORBITOL] the figure was above 30 µM.
Regarding `OC[C@H]1O[C@@](CO)(O[C@H]2O[C@H](CO)[C@@H](O)[C@H](O)[C@H]2O)[C@@H](O)[C@@H]1O` [SUCROSE], the AC50 at Histamine H1 receptor and on D(1A) dopamine receptor was above 30 µM each time.
Consider `Nc1ccc(S(=O)(=O)Nc2nccs2)cc1` [SULFATHIAZOLE], for which the AC50 in assay [5] was above 10 µM.
In the case of `CCN(CC)CCNC(=O)c1c(C)[nH]c(/C=C2\C(=O)Nc3ccc(F)cc32)c1C` [SUNITINIB], the AC50 is 2.39 µM in [4], above 10 µM on Glucocorticoid receptor [3] and 5.9 µM at Androgen receptor.
`COc1cc2nc(N3CCN(C(=O)C4CCCO4)CC3)nc(N)c2cc1OC` (configuration not stated) [TERAZOSIN]: the AC50 at Estrogen receptor beta was above 30 µM.
As for `CC(S)C(=O)NCC(=O)O` (configuration not stated) [TIOPRONIN], the AC50 on Androgen receptor is above 30 µM.
As for `Cc1onc(-c2ccccc2)c1-c1ccc(S(N)(=O)=O)cc1` [VALDECOXIB], the AC50 in [4] was above 10 µM; in assay [5], above 10 µM; at Cannabinoid receptor 1, above 10 µM; in assay [6], above 10 µM; at Estrogen receptor beta it was above 30 µM.
Regarding `CCCC(CCC)C(=O)O` [VALPROIC ACID], the concentration at half-maximal activity (AC50) (in assay [4]; at Cannabinoid receptor 1; in assay [6]) was above 10 µM throughout.

Source of the values: ChEMBL document CHEMBL5291721, “A preclinical secondary pharmacology resource illuminates target-adverse drug reaction associations of marketed drugs” (Nat Commun, 2023).
